# Test results taken from US8431529B2, “Bi-dentate compounds as kinase inhibitors” (Sanford-Burnham Medical Research Institute, priority 2007, dated 2013).
# Non-standard residues stand in square brackets, D forms with d. Residues, ends and D or L forms follow the SMILES beside them. No end group written: not given here. *: point of attachment. X1 = O=C(NCCCN*)c1ccc(-c2n[nH]c3ccccc23)cc1
# Key:
# JNK1 [1] = target: T1, JNK1 (Homo sapiens, UniProt P45983); experiment: LanthaScreen TR-FRET in vitro kinase activity assay, JNK1 phosphorylation of ATF2; assay type: biochemical; conditions: for Kinase Activity Assay (JNK), ND class: Table 1, ND with footnote
# T1 sequence (P45983 whole entry, species assumed): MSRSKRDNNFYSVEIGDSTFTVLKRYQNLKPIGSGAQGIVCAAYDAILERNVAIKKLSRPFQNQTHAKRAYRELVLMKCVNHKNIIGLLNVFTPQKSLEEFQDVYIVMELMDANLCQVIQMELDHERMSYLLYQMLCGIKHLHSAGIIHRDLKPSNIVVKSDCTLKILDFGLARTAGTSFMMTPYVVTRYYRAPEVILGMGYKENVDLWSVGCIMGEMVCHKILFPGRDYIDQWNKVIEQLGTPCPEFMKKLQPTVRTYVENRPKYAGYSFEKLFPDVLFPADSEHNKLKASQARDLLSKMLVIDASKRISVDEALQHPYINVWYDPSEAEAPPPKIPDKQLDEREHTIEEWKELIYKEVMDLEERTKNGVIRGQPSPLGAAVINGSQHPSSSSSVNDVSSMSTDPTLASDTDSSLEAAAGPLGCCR
# Protocol: LanthaScreen™ In vitro Kinase Assay. LanthaScreen™ assay platform from Invitrogen was utilized. The time-resolved fluorescence resonance energy transfer assay (TR-FRET) was performed in 384 well plates. Each well received JNK1 (100 ng/mL), ATF2 (200 nM), and ATP (1 μM) in 50 mM HEPES, 10 mM MgCl2, 1 mM EGTA and 0.01% Brij-35, pH 7.5 and test compounds. The kinase reaction was performed at room temperature for 1 hr. After this time, the terbium labeled antibody and EDTA were added into each well. After an additional hour incubation, the signal was measured at 520/495 nm emission ratio on a BMG Pherastar fluorescence plate reader.
# JNK1 [2] = target: T1, JNK1; experiment: DELFIA assay: displacement of biotinylated pepJIP1 (L-JIP1 peptide) from GST-JNK1; assay type: binding; conditions: for Delfia Assay (Displacement of L-JIP1 peptide from JNK), ND class: Table 1, ND with footnote
# Protocol: In order to define an optimal interacting docking peptide sequence for JNK, twenty peptide sequences were tested, which were derived from its putative substrates and scaffolding proteins, all presenting a D-domain consensus motif. Each peptide was tested for its ability to displace pepJIP1 (residues 153-164) from JNK1 by using a Dissociation Enhanced Lanthanide Fluoro-Immuno Assay (DELFIA) platform. DELFIA is a heterogeneous assay whereby a biotin-linked pepJIP1 is adsorbed onto a streptavidin-coated plate followed by incubation with GST-JNK1. Detection of the pepJIP1/GST-JNK1 complex is facilitated by a highly fluorescent anti-GST Eu-antibody conjugate (Perkin-Elmer).
# DELFIA Assay (dissociation enhanced lanthanide fluoro-immuno assay). […] After 1 hr incubation and elimination of unbound biotin-pepJIP1 by 3 washing steps, 87 μL of Eu-labeled anti-GST antibody solution (300 ng/ml; 1.9 nM), 2.5 μL DMSO solution containing test compound, and 10 μL solution of GST-JNK1 for a final protein concentration of 10 nM was added. After 1 hr incubation at 0° C., each well was washed 5 times to eliminate unbound protein and the Eu-antibody if displaced by a test compound. Subsequently, 200 μL of enhancement solution (Perkin-Elmer) was added to each well and fluorescence measured after 10 min incubation (excitation wavelength, 340 nm; emission wavelength, 615 nm). Controls include unlabeled peptide and blanks receiving no compounds. Protein and peptide solutions were prepared in DELFIA buffer (Perkin-Elmer).
# p38α = p38α (Homo sapiens, UniProt Q16539); experiment: LanthaScreen kinase activity assay with ATF2 substrate versus p38α; assay type: biochemical
# p38α, sequence (Q16539 whole entry, the tested form may be a part): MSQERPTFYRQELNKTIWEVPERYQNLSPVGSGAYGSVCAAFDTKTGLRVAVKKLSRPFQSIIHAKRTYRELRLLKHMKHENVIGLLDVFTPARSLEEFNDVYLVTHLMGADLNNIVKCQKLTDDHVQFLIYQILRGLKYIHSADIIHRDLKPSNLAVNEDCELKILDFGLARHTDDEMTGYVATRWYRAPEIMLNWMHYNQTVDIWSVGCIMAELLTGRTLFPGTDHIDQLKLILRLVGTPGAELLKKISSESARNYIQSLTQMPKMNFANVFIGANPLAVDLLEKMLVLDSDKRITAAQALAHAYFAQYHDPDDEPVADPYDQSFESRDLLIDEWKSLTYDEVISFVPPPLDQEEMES
# Protocol: In order to confer further favorable pharmacological properties to this compound for in vivo studies, analogous to the clinical candidate D-JNK1^15, an all-D retro-inverso version of BI77B8 fused to the cell penetrating HIV-TAT sequence was prepared. […] LanthaScreen™ In vitro Kinase Assay. LanthaScreen™ assay platform from Invitrogen was utilized. The time-resolved fluorescence resonance energy transfer assay (TR-FRET) was performed in 384 well plates. […] After this time, the terbium labeled antibody and EDTA were added into each well. After an additional hour incubation, the signal was measured at 520/495 nm emission ratio on a BMG Pherastar fluorescence plate reader.
# [3] = JNK1, ATF2 substrate, read-out: Kinase Inhibition IC50
# [4] = Table 3, read-out: pepJIP Displacement IC50
# [5] = Table 2, read-out: IC50 (μM), Kinase Assay
# [6] = Table 1, read-out: Delfia Assay (Displacement of L-JIP1 peptide from JNK) IC50
# [7] = Table 1, read-out: Kinase Activity Assay (JNK) IC50
compound,measurement,setting,value
Ac-PTTLNLGG-OH,"Kinase Activity Assay (JNK), ND class",JNK1 [1],"ND^*) (in the Kinase Assay, no activity at 25 μM)"
same,"Delfia Assay (Displacement of L-JIP1 peptide from JNK), ND class",JNK1 [2],"ND^*) (In the Delfia Assay, no displacement up to 100 μM)"
Ac-tdqsrpvqpflnlttprrprpprrrqrrkkrg-OH [D-JNKI],IC50,JNK1 [1]; [3],> 50 µM
same,IC50,JNK1 [2]; [4],~10000 nM
Compound I (RPTTLNLGG; also: conjugate per reaction scheme A),ATP competition analysis,"JNK1 [1]; FIGS. 2A, 2B","competitive, at least to some extent"
same,ATF2 competition analysis,"JNK1 [1]; FIGS. 2C, 2D","competitive, at least to some extent"
same,Inhibitor activity compared with peptide Ac-RPTTLNLGG-OH and product 8,"JNK1 [2]; FIGS. 1A-1D, Delfia Assay",substantially more active
same,Selectivity relative to p38a,"p38α; FIGS. 3A, 3B",good selectivity
NCCCNC(=O)c1ccc(-c2n[nH]c3ccccc23)cc1,"Delfia Assay (Displacement of L-JIP1 peptide from JNK), ND class",JNK1 [2],"ND^*) (In the Delfia Assay, no displacement up to 100 μM)"
CC(C)CC(NC(=O)C(CC(N)=O)NC(=O)C(CC(C)C)NC(=O)C(NC(=O)C(NC(=O)C1CCCN1C(=O)C(N)CCCNC(=N)N)C(C)O)C(C)O)C(=O)NCC(=O)NCC(=O)NCCCNC(=O)c1ccc(-c2n[nH]c3ccccc23)cc1 (centres unmarked) [BI-77B8] (H-RPTTLNLGG-X1; configuration not given here),Affinity in inhibition of JNK1 kinase activity,JNK1 [1],sub-nanomolar
same,IC50,JNK1 [1]; [3],0.7 µM
same,Improvement of kinase inhibition compared with pepJIP1,JNK1 [1]; direct comparison with pepJIP1,over 100 fold
same,Affinity in competition with pepJIP1 for JNK1 binding,JNK1 [2],sub-nanomolar
same,IC50,JNK1 [2]; [4],900 nM
AcGRKKRRQRRRGGRPTTLNLGG (Ac-GRKKRRQRRRGGRPTTLNLGG),Kinase Activity Assay (JNK) % inhibition,JNK1 [1]; at 50 μM,90%
same,Kinase Activity Assay (p38[…]) % at 50 μM,p38α,6% at 50 μm
GGLNLTTPRGGRRRQRRKKRG-NH2 (GG[dL][dN][dL][dT][dT][dP][dR]GG[dR][dR][dR][dQ][dR][dR][dK][dK][dR]G-NH2),Kinase Activity Assay (JNK) % inhibition,JNK1 [1]; at 50 μM,11%
same,Kinase Activity Assay (p38[…]) % at 50 μM,p38α,0% at 50 μm
CN1CCN(CCC(=O)NCCCCCNC(=O)c2ccc(-c3n[nH]c4ccccc34)cc2)CC1,IC50,JNK1 [1]; [5],4.5 µM
Ac-LNL-OH,"Kinase Activity Assay (JNK), ND class",JNK1 [1],"ND^*) (in the Kinase Assay, no activity at 25 μM)"
same,"Delfia Assay (Displacement of L-JIP1 peptide from JNK), ND class",JNK1 [2],"ND^*) (In the Delfia Assay, no displacement up to 100 μM)"
Ac-LNLGG-OH,"Kinase Activity Assay (JNK), ND class",JNK1 [1],"ND^*) (in the Kinase Assay, no activity at 25 μM)"
same,"Delfia Assay (Displacement of L-JIP1 peptide from JNK), ND class",JNK1 [2],"ND^*) (In the Delfia Assay, no displacement up to 100 μM)"
Ac-RPTTLNLGG-OH,inhibition at 50 µM,"JNK1 [1]; at 50 μM, read-out: Kinase Activity Assay (JNK) % inhibition",25%
same,IC50,JNK1 [2]; [6],18000 nM
NCCCNC(=O)c1ccc(-c2n[nH]c3ccc(NC(=O)Cc4cccs4)cc23)cc1,IC50,JNK1 [1]; [5],1.9 µM
COC(=O)c1ccc(-c2n[nH]c3ccccc23)cc1,IC50,JNK1 [1]; [5],9.7 µM
CC(C)(C)OC(=O)NCCCNC(=O)c1ccc(-c2n[nH]c3ccc(NC(=O)Cc4cccs4)cc23)cc1,IC50,JNK1 [1]; [5],1.2 µM
"Ac-RPTTLNL-OH [BI-77F10, Ac-RPTTLNL-OH]",IC50,JNK1 [1]; [3],> 50 µM
same,Inhibition of JNK1 phosphorylation of ATF2,JNK1 [1]; at concentrations up to 25 μM,unable to inhibit
same,IC50,JNK1 [2]; [4],4500 nM
CC(C)(C)OC(=O)NCCCCCNC(=O)c1ccc(-c2n[nH]c3ccccc23)cc1,IC50,JNK1 [1]; [5],2.3 µM
CC(C)(C)OC(=O)NCCCNC(=O)c1ccc(-c2n[nH]c3ccccc23)cc1,IC50,JNK1 [1]; [7],3.5 µM
same,"Delfia Assay (Displacement of L-JIP1 peptide from JNK), ND class",JNK1 [2],"ND^*) (In the Delfia Assay, no displacement up to 100 μM)"
COC(=O)CCCNC(=O)c1ccc(-c2n[nH]c3ccccc23)cc1,IC50,JNK1 [1]; [5],0.9 µM
RPKRPTTLNLF,IC50,JNK1 [1]; [7],0.423 µM
same,IC50,JNK1 [2]; [6],2900 nM
same,Kinase Activity Assay (p38[…]) % at 50 μM,p38α,6% at 50 μM
